We go through 1 compound from patent US20220026421A1, “METHOD, SURFACE, PARTICLE AND KIT FOR THE DETECTION OF ANALYTES IN SAMPLES” (TECHNISCHE UNIVERSITÄT DRESDEN, priority 2018, published 2022).

Each structure is given as a SMILES string.

The assay addresses EcEPSPS (UniProt P0A6D3+Q04571). The note with it: FIG. 2; surfaces incubated with 10 mM solution, then glyphosate-coated particles; Ccg2 / Ccg2_GS_EcEPSPS coated glass.

Procedure: The immobilised enzymes on the surface interact attractively with the particle-bound competitor, resulting in a characteristic contact area between the surface and the particle. The dissolved analyte competes with the competitor for the binding sites on the surface. […] The determination of the contact and particle radius to ascertain the adhesion energy takes place by means of reflection interference contrast microscopy.
The surfaces were then incubated with either 10 mM glyphosate or glufosinate solutions and then with linker-functionalised particles with or without glyphosate coating.
The surfaces were then incubated with glyphosate solutions of different concentrations and then with glyphosate-coated particles with ethylenediamine or pentaglycine linkers. […]
The recording of the radial intensity profiles of the HGS on the functionalised surface took place in the reflection interference contrast method by means of an inverted microscope system (Olympus IX 73) with a 60× immersion objective (Olympus UPIanSAPO 60× Oil Microscope Objective). From the recorded profiles, the contact radii a of particles and surface as well as the particle radii RHES could be automatically ascertained subsequently by means of software specially developed for this purpose. According to the Johnson-Kendall-Roberts model [2], these quantities are related to the adhesion energy Wadh in the following context: […]

On to `O=C(O)CNCP(=O)(O)O` [glyphosate, N-(phosphonomethyl)glycine], for which the “influence of soluble compound on the adhesion energy between glyphosate-coated particle and surface” value was “in the range of the negative control”.
